Reference: patent US8883963B2 (Cadila Healthcare Limited, priority 2007, dated 2014)

Tests used:
[1] = Stability in liver microsomes; format: in vitro ADME; conditions: 2 μM peptidomimetic, human liver microsomes, 37° C.; for half-life at 2 μM: pH 7.8, read-out: half-life (t1/2) when incubated with liver microsomes
Procedure: (§1) Reactions were terminated by the addition of TFA/H2O (15 mL, 10% (v/v)). […] The column was equilibrated with TFA/H20, at a flow rate of 1 mL/min.

[2] = molecular target: DPP IV (Homo sapiens, UniProt P27487); assay: Stability against DPP IV enzyme; format: in vitro ADME; conditions: 37° C.; for % degradation of peptidomimetics in 24 h when incubated with DPP-IV enzyme: 2 μM peptidomimetic; for half-life at 2 μM: DPP IV enzyme, pH 7.8, 2 μM peptidomimetic, read-out: half-life (t1/2) when incubated with DPP-IV enzyme
Procedure: as §1

[3] = molecular target: T1, Human GLP-1 receptor (Homo sapiens, UniProt P43220); assay: In vitro Human GLP-1 R agonist activity (cyclic AMP determination) in CHO/human GLP1R cells; format: cell-based
T1 construct: The full-length cDNA was cloned in pcDNA3.1(+); expressed in transfected cells
Procedure: The novel peptidomimetics were screened for Human GLP-1 receptor (HGLP-1 R) agonist activity (in vitro), using the cAMP cell-based assay, in stably transfected CHO/human GLP1R cells. […] CHO cells were grown in Ham's F12 medium containing L-Glutamine (2 mM), HEPES (25 mM), NaHCO3 (1.1 g/L) and supplemented with NewBorn Calf Serum (NBCS; 10%), Penicillin (50 U/ml (v/v)) and Streptomycin (50 ug/ml (v/v)). Cells were split every 3 days 1:8.
The cDNA encoding the human GLP-1 receptor was isolated by RT-PCR according to standard protocol. The full-length cDNA was cloned in pcDNA3.1(+). […] Clones expressing the receptor were generated by G418 (800 μg/ml active, Sigma) selection. The stable clones were thereafter maintained at 500 ug/ml (G418). The selected clone was used between passages 9-25 for cAMP assays.
The trypsin was inactivated using Ham's F12 medium containing 10% NBCS and the cells were suspended in 2 ml of complete medium. […] The medium was aspirated off from the 12 well plate and the cells were washed once using Ham's F12 (plain). […] The cells were incubated with the test compounds for 30 min in humidified atmosphere and 37° C. After the incubation, the medium was removed and cells were washed once with plain Ham's F12. Subsequently, the cells were lysed by adding 500 ul of ice cold 0.1 N HCl to each well and shaking for 30 minutes at 200 rpm. The cells were then scrapped, the lysate was collected in micro centrifuge tubes and centrifuged at 12000 rpm for 10 min to remove the debris. 300 ul of supernatant from each micro-centrifuge tube was then removed into a glass tube and dried under N2 for 30 min, for cAMP estimation. The total cAMP was estimated from the sample according to the manufacturer's protocol using Cyclic AMP immunoassay kit (R&D systems, Minneapolis. MN). The remaining supernatant is used to determine the protein concentration using micro BCA (Sigma). Data is calculated as percent of control (Vehicle: water) and expressed as Mean±SD.

[4] = Stability in simulated intestinal fluid; format: in vitro ADME; conditions: 2 μM peptidomimetic, simulated intestinal fluid pH 7.5, 37° C.; for half-life at 2 μM: read-out: half-life (t1/2) when incubated with simulated intestinal fluid
Procedure: as §1

[5] = Stability in simulated gastric fluid; format: in vitro ADME; conditions: 2 μM peptidomimetic, simulated gastric fluid pH 1.5, 37° C.; for half-life at 2 μM: read-out: half-life (t1/2) when incubated with simulated gastric fluid
Procedure: as §1

[6] = Stability in human plasma; format: in vitro ADME; conditions: 2 μM peptidomimetic, pooled human plasma, 37° C.; for half-life at 2 μM: pH 7.8, read-out: half-life (t1/2) when incubated with human plasma
Procedure: as §1

DPP IV, sequence (P27487 whole entry, species assumed): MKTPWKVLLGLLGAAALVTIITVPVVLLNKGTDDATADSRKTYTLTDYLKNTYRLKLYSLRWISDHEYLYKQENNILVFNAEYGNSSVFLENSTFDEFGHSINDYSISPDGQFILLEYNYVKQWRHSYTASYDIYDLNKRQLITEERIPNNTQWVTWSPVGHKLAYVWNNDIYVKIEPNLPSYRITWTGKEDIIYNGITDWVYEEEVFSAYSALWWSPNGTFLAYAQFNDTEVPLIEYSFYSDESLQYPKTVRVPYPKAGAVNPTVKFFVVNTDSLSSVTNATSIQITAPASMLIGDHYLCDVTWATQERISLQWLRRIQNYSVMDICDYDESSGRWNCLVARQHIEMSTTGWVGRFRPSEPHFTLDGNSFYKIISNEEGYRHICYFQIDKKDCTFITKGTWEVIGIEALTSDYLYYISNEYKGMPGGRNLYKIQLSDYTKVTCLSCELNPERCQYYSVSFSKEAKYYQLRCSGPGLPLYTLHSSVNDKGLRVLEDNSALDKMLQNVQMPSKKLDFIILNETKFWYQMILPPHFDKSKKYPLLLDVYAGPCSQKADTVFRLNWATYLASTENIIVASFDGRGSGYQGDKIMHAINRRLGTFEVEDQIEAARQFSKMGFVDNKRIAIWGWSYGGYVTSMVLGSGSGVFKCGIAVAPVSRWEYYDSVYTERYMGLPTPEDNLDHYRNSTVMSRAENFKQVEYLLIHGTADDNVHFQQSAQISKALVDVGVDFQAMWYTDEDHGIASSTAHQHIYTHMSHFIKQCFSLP
T1 sequence (P43220 24-463): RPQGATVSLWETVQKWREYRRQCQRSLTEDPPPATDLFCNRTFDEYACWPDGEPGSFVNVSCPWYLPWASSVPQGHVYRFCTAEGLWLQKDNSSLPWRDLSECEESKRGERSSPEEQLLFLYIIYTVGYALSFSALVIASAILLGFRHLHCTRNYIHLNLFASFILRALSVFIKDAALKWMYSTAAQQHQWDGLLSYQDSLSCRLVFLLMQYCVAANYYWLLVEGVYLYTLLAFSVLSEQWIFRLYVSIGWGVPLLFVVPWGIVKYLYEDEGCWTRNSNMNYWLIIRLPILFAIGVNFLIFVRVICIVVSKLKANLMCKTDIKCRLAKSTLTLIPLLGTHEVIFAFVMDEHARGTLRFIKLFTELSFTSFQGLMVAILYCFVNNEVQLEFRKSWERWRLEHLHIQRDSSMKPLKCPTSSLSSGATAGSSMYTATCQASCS

Structure (SMILES) | % degradation of peptidomimetics in 24 h when incubated with liver microsomes [1] [%] | half-life at 2 μM [1] [h] | % degradation of peptidomimetics in 24 h when incubated with DPP-IV enzyme [2] [%] | half-life at 2 μM [2] [h] | Human GLP-1 R activity (cAMP release), % activity with respect to control ([3]; 1 nM test compound) [%] | Human GLP-1 R activity (cAMP release), % activity with respect to control ([3]; 10 nM test compound) [%] | Human GLP-1 R activity (cAMP release), % activity with respect to control ([3]; 100 nM test compound) [%] | Human GLP-1 R activity (cAMP release), % activity with respect to control ([3]; 1 μM test compound) [%] | Human GLP-1 R activity (cAMP release), % activity with respect to control ([3]; 10 μM test compound) [%] | % degradation of peptidomimetics in 24 h when incubated with simulated intestinal fluid [4] [%] | half-life at 2 μM [4] [h] | % degradation of peptidomimetics in 24 h when incubated with simulated gastric fluid [5] [%] | half-life at 2 μM [5] [h] | % degradation of peptidomimetics in 24 h when incubated with human plasma [6] [%] | half-life at 2 μM [6] [h] | half-life (t1/2) when incubated with liver microsomes [1]
CCc1cc(OC)ccc1-c1ccc(CC(NC(=S)[C@H](CC(=O)O)NC(=O)[C@H](CO)NC(=O)[C@@H](NC(=O)C(C)(Cc2ccccc2F)NC(=O)[C@@H](NC(=O)CNC(=O)C(CCC#N)NC(=O)C(C)(C)NC(=O)[C@@H](N)Cc2c[nH]cn2)[C@H](C)O)[C@H](C)O)C(=S)NC(CCCc2ccccc2F)C(N)=O)cc1 (single isomer, unassigned) [compound 180] | 86 | 2 | 00 | > 24 | 40 ± 0.11 | 81 ± 0.09 | 89 ± 0.06 | 96 ± 0.14 | 99 ± 0.19 | 00 | > 24 | 50 | 4 | 00 | > 24 | –
CCc1cc(OC)ccc1-c1ccc(CC(CNC(CCCc2ccccc2)C(N)=O)NC(=O)[C@H](CC(=O)O)NC(=O)[C@H](CO)NC(=O)[C@@H](NC(=O)C(C)(Cc2ccccc2F)NC(=O)[C@@H](NC(=O)CNC(=O)[C@H](CCC(N)=O)NC(=O)C(C)(C)NC(=O)[C@H](Cc2c[nH]cn2)NC(C)=O)[C@H](C)O)[C@H](C)O)cc1 (single isomer, unassigned) [compound 185] | 84 | 2 | 00 | > 24 | 46 ± 0.022 | 85 ± 0.46 | 90 ± 0.41 | 99 ± 0.66 | 99 ± 0.03 | 00 | > 24 | 55 | 4 | 00 | > 24 | –
CCc1cc(OC)ccc1-c1ccc(CC(CNC(CCCc2ccccc2)C(N)=O)NC(=O)[C@H](CC(=O)O)NC(=O)[C@H](CO)NC(=O)[C@@H](NC(=O)C(C)(Cc2ccccc2F)NC(=O)[C@@H](NC(=O)CNC(=O)C(CCC#N)NC(=O)C(C)(C)NC(=O)[C@@H](N)Cc2c[nH]cn2)[C@H](C)O)[C@H](C)O)cc1 (single isomer, unassigned) [compound 190] | 85 | 2 | 00 | > 24 | 41 ± 0.09 | 82 ± 0.07 | 87 ± 0.04 | 95 ± 0.01 | 98 ± 0.08 | 00 | > 24 | 45 | 4 | 00 | > 24 | –
CCc1cc(OC)ccc1-c1ccc(CC(CNC(CCCc2ccccc2)C(N)=O)NC[C@H](CC(=O)O)NC(=O)[C@H](CO)NC(=O)[C@@H](NC(=O)C(C)(Cc2ccccc2F)NC(=O)[C@@H](NC(=O)CNC(=O)[C@H](CCC(N)=O)NC(=O)C(C)(C)NC(=O)[C@H](Cc2c[nH]cn2)NC(=O)OC)[C@H](C)O)[C@H](C)O)cc1 (single isomer, unassigned) [compound 198] | 82 | 2 | 00 | > 24 | 82 ± 0.22 | 87 ± 0.12 | 92 ± 0.14 | 99 ± 0.22 | 99 ± 0.26 | 00 | > 24 | 49 | 4 | 00 | > 24 | –
CCc1cc(OC)ccc1-c1ccc(CC(CNC(CCCc2ccccc2F)C(N)=O)NC[C@H](CC(=O)O)NC(=O)[C@H](CO)NC(=O)[C@@H](NC(=O)C(C)(Cc2ccccc2F)NC(=O)[C@@H](NC(=O)CNC(=O)[C@H](CCC(N)=O)NC(=O)C(C)(C)NC(=O)[C@@H](N)Cc2c[nH]cn2)[C@H](C)O)[C@H](C)O)cc1 (single isomer, unassigned) [compound 203] | 31 | – | 00 | > 24 | 86 ± 0.11 | 99 ± 0.09 | 99 ± 0.06 | 99 ± 0.14 | 99 ± 0.19 | 00 | > 24 | 00 | > 24 | 00 | > 24 | (5) h
